# According to the supplement of paper PMC11208160:
# Assay: recombinant UMI read abundance after kanamycin selection (control-corrected) (log10(CPM+1)); higher = more efficient recombination; extreme values may be limits of the assay; sequences stand for … in AGTGCAGAGAAAATCGGCCAGTTTTCTCTGCCTGCAGTCCGCATGCCGTGGGACCCCTTGGGTTCTAACCTGTTGCCTAGATTTATGCAGCGGACTGCCTTTCTCCCAAAGTGATAAACCGG…AGGTTGGTTTCACT; site = the 11-nt donor
# Outline: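 Sequencing read counts were converted to CPM, averaged over two replicates and scaled by control-derived factors. Results are given as log10(CPM+1). The reads covered the donor–target junction of recombinant UMIs from a pooled Escherichia coli screen of donor and donor-binding-loop pairs for the IS621 bridge recombinase.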
# 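Note: IS621 bridge recombinase in Escherichia coli cells against a fixed T5 target plasmid.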
row,Sequence,recombinant UMI read abundance (log10)
1,CCCTTCACATGGACCGGTTTTCCCGGTAATCCGTATTTGGG (site CCCTTCGCTCC),0.0224
2,CCCTTCACATGGACCGGTTTTCCCGGTAATCCGTATTTGGG (site CCCTTCTCTCC),0.0124
3,CCCTTCCCATGGACCGGTTTTCCCGGTAATCCGTATTTGGG (site CCCTTCACTCC),0.0226
4,CCCTTCCCATGGACCGGTTTTCCCGGTAATCCGTATTTGGG (site CCCTTCCCTCC),0.00862
5,CCCTTCCCATGGACCGGTTTTCCCGGTAATCCGTATTTGGG (site CCCTTCGCTCC),0.00355
6,CCCTTCCCATGGACCGGTTTTCCCGGTAATCCGTATTTGGG (site CCCTTCTCTCC),0.0121
7,CCCTTCTCATGGACCGGTTTTCCCGGTAATCCGTATTTGGC (site CCCTTCTCTAC),0.0232
8,CCCTTCTCATGGACCGGTTTTCCCGGTAATCCGTATTTGGC (site CCCTTCTCTCC),0.455
9,CCCTTCTCATGGACCGGTTTTCCCGGTAATCCGTATTTGGC (site CCCTTCTCTGC),1.71
10,CCCTTCTCATGGACCGGTTTTCCCGGTAATCCGTATTTGGC (site CCCTTCTCTTC),0.00807
11,CCGAAGCCATGGACCGGTTTTCCCGGTAATCCGTATTTGTG (site CCGAAGCCTCA),0.0182
12,CCGAATCCATGGACCGGTTTTCCCGGTAATCCGTATTTGCT (site CCGAATCCTAG),0.196
13,CCGAATCCATGGACCGGTTTTCCCGGTAATCCGTATTTGCT (site CGGAATCCTAA),0
14,CCGAATTCATGGACCGGTTTTCCCGGTAATCCGTATTTGGG (site CCGAATTCTCC),0
15,CCGCACACATGGACCGGTTTTCCCGGTAATCCGTATTTGAA (site CCGCACACTTT),0.931
16,CCGCATCCATGGACCGGTTTTCCCGGTAATCCGTATTTGGG (site CCGCATCCTCC),0.0031

row,Sequence,recombinant UMI read abundance (log10)
1,CCGCCAACATGGACCGGTTTTCCCGGTAATCCGTATTTGAG (site CCGCCAACTCT),0.356
2,CCGCGGGCATGGACCGGTTTTCCCGGTAATCCGTATTTGCC (site CCGCGGGCTGG),1.43
3,CCGCGTGCATGGACCGGTTTTCCCGGTAATCCGTATTTGCG (site CCGCGTGCTCG),0.222
4,CCGCTCTCATGGACCGGTTTTCCCGGTAATCCGTATTTGTT (site CCGCTCTCTAA),1.51
5,CCGCTGCCATGGACCGGTTTTCCCGGTAATCCGTATTTGAA (site CCGCTGCCTTT),0.0286
6,CCGCTTACATGGACCGGTTTTCCCGGTAATCCGTATTTGGA (site CCGCTTACTTC),0.539
7,CCGGACCCATGGACCGGTTTTCCCGGTAATCCGTATTTGTT (site CCGGACCCTAA),0.0191
8,CCGGCACCATGGACCGGTTTTCCCGGTAATCCGTATTTGAT (site CCGGCACCTAT),0.00703
9,CCGGCATCATGGACCGGTTTTCCCGGTAATCCGTATTTGCG (site CCGGCATCTCG),0
10,CCGGCCGCATGGACCGGTTTTCCCGGTAATCCGTATTTGCC (site CCGGCCGCTGG),0
11,CCGGGGCCATGGACCGGTTTTCCCGGTAATCCGTATTTGGT (site CCGGGGCCTAC),0.0146
12,CCGGGTCCATGGACCGGTTTTCCCGGTAATCCGTATTTGCA (site CCAGGTCCTTG),0
13,CCGGGTCCATGGACCGGTTTTCCCGGTAATCCGTATTTGCA (site CCCGGTCCTTG),0
14,CCGGGTCCATGGACCGGTTTTCCCGGTAATCCGTATTTGCA (site CCGGGTCCTTG),0.00309
15,CCGGGTCCATGGACCGGTTTTCCCGGTAATCCGTATTTGCA (site CCTGGTCCTTG),0.0157
16,CCGGTAACATGGACCGGTTTTCCCGGTAATCCGTATTTGCG (site CCGGTAACTCG),0.686
